Target: T1, soluble guanylate cyclase (GUCYA3/GUCYB3) overexpressed in CHO cells (Homo sapiens, UniProt Q02108+Q02153)
T1 construct: expressed in transfected cells
T1 sequence (Q02108 1-690 partner): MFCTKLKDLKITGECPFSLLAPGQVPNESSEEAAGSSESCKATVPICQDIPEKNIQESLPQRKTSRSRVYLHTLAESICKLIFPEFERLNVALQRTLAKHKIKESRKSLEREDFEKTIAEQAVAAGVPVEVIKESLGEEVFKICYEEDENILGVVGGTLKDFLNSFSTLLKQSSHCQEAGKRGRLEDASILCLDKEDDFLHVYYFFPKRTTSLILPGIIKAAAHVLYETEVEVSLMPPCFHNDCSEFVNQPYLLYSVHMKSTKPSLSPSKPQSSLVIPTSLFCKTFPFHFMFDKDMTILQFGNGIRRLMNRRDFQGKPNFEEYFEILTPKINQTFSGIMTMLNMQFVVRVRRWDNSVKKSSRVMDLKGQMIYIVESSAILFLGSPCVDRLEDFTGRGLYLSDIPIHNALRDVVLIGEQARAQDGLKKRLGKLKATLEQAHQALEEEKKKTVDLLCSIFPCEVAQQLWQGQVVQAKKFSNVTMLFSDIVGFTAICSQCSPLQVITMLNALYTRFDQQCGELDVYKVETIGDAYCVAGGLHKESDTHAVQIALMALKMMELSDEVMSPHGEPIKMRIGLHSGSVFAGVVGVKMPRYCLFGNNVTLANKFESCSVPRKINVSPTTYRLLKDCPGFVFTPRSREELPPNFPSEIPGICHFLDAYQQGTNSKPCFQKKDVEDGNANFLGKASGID
T1 sequence (Q02153 1-619): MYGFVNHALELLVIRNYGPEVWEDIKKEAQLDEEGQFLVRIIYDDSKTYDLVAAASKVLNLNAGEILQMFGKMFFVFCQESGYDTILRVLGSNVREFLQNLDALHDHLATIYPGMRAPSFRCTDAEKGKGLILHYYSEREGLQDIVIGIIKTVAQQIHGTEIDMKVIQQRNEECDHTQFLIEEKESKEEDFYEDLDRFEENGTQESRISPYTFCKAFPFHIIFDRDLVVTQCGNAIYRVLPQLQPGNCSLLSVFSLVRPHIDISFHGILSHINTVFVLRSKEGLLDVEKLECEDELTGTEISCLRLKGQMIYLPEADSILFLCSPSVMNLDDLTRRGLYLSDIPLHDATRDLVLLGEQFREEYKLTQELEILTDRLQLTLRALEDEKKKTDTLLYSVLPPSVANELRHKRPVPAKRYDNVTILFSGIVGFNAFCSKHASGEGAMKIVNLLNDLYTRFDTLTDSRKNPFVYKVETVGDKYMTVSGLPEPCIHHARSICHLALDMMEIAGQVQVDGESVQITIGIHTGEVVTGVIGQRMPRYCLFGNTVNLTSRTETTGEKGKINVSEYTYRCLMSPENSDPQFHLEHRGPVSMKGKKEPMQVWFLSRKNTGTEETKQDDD
Test: CHO cellular assay (cGMP production, HTRF)
Assay type: cell-based
Details: CHO GUCY clone 8E10; assay buffer with 1 mM IBMX, 20 uM ODQ; 1 h at room temperature; cGMP HTRF; quantification limit 0.0005 μM; read-out: Mean EC50
Text: Chinese hamster ovary (CHO) cells overexpressing soluble guanylate cyclase were generated to test the effect of sGC activators in a cellular context. Human cDNAs for GUCYA3 (RefSeq: NM_000856.3) and GUCYB3 (RefSeq: NM_000857.1) were amplified by PCR from a HUVEC (Human Umbilical Vein Endothelial Cells) cDNA library and cloned into mammalian expression vectors. CHO K1 cells (ATCC CCL-61) were transfected using Lipofectamine 2000 following manufacturer's instructions and stably expressing clones were identified by antibiotic selection. CHO GUCY clone 8E10 was used for subsequent experiments.
Cells were seeded at a density of 3000 cells/well in white 384-well proxyplates (Perkin Elmer) and incubated overnight, then the medium was removed and cells were washed with assay buffer (HBSS, 0.1% BSA, 1 mM IBMX, 20 uM ODQ). sGC activators were serially diluted in DMSO, then diluted in assay buffer prior to adding to cells (10 ul/well, final DMSO concentration 0.5%). Cells were incubated with compounds for 1 h at room temperature, then assayed for cGMP production using Cisbio cGMP HTRF kit (62GM2PEC) according to manufacturer's instructions.
The EC50s are calculated based on the amount of cGMP interpolated from the standard curve, using a 4-parameter sigmoidal dose-response.
Compounds of invention are active on sGC activation. Data in Table 1 collected using the assay of Biological Example 1.

Row | SMILES | EC50
1 | CCc1nc(NC2CCc3cccc(-c4cccc(-n5ncc(C(=O)O)c5OC)n4)c32)ccc1C1=CCN(C(=O)C2CC2)CC1 (single isomer, unassigned; (+)) [Example 16A, (+)-1-(6-(3-((1′-(Cyclopropanecarbonyl)-2-ethyl-1′,2′,3′,6′-tetrahydro-[3,4′-bipyridin]-6-yl)amino)-2,3-dihydro-1H-inden-4-yl)pyridin-2-yl)-5-methoxy-1H-pyrazole-4-carboxylic acid] | < 0.5 nM
2 | CCc1cc(C[C@@H]2CCc3cccc(-c4cccc(-n5ncc(C(=O)O)c5OC)c4)c32)ccc1C1CCN(C(=O)[C@H](C)O)CC1 [Example 2B, (−)-1-(3-((S)-3-(3-Ethyl-4-(1-((S)-2-hydroxypropanoyl)piperidin-4-yl)benzyl)-2,3-dihydro-1H-inden-4-yl)phenyl)-5-methoxy-1H-pyrazole-4-carboxylic acid] | 34 nM
3 | CCc1cc(C[C@H]2CCc3cccc(-c4cccc(-n5ncc(C(=O)O)c5OC)n4)c32)ccc1C1CCN(C(=O)[C@H](C)O)CC1 [Example 24, (+)-(R)-1-(6-(3-(3-Ethyl-4-(1-((S)-2-hydroxypropanoyl)piperidin-4-yl)benzyl)-2,3-dihydro-1H-inden-4-yl)pyridin-2-yl)-5-methoxy-1H-pyrazole-4-carboxylic acid] | < 0.5 nM
4 | CCc1nc(NC2CCc3cccc(-c4cccc(-n5ncc(C(=O)O)c5OC)n4)c32)ccc1C1=CCN(C(=O)C2CC2)CC1 (single isomer, unassigned; (-)) [Example 16B, (−)-1-(6-(3-((1′-(Cyclopropanecarbonyl)-2-ethyl-1′,2′,3′,6′-tetrahydro-[3,4′-bipyridin]-6-yl)amino)-2,3-dihydro-1H-inden-4-yl)pyridin-2-yl)-5-methoxy-1H-pyrazole-4-carboxylic acid] | 279 nM
5 | CCc1nc(NC2CCc3cccc(-c4cccc(-n5ncc(C(=O)O)c5OC)n4)c32)ccc1C1=CCN(C(=O)[C@H](C)O)CC1 (single isomer, unassigned) [Example 17A, 1-(6-((R or S)-3-((2-ethyl-1′-((S)-2-hydroxypropanoyl)-1′,2′,3′,6′-tetrahydro-[3,4′-bipyridin]-6-yl)amino)-2,3-dihydro-1H-inden-4-yl)pyridin-2-yl)-5-methoxy-1H-pyrazole-4-carboxylic acid] | 71 nM
6 | CCc1cc(O[C@H]2CCc3cccc(-c4cccc(-n5ncc(C(=O)O)c5OC)n4)c32)ccc1C1CCN(C(=O)[C@H](C)O)CC1 [Example 15, 1-(6-((S)-3-(3-Ethyl-4-(1-((S)-2-hydroxypropanoyl)piperidin-4-yl)phenoxy)-2,3-dihydro-1H-inden-4-yl)pyridin-2-yl)-5-methoxy-1H-pyrazole-4-carboxylic acid] | 1 nM

More lines, now with the values ahead:

Row | EC50 | SMILES
7 | < 0.5 nM | CCc1cc(C[C@H]2CCc3cccc(-c4cccc(-n5ncc(C(=O)O)c5OC)n4)c32)ccc1C1CCN(C(=O)C2CC2)CC1 [Example 13, (+)-(R)-1-(6-(3-(4-(1-(Cyclopropanecarbonyl)piperidin-4-yl)-3-ethylbenzyl)-2,3-dihydro-1H-inden-4-yl)pyridin-2-yl)-5-methoxy-1H-pyrazole-4-carboxylic acid]
8 | < 0.5 nM | CCc1cc(NC2CCc3cccc(-c4cccc(-n5ncc(C(=O)O)c5NC)c4)c32)ccc1C1CCN(C(=O)C2CC2)CC1 (single isomer, unassigned; enantiomer-2) [Example 12B, (enantiomer-2)-1-(3-(3-((4-(1-(Cyclopropanecarbonyl)piperidin-4-yl)-3-ethylphenyl)amino)-2,3-dihydro-1H-inden-4-yl)phenyl)-5-(methylamino)-1H-pyrazole-4-carboxylic acid]
9 | 31 nM | CCc1cc(NC2CCc3cccc(-c4cccc(-n5ncc(C(=O)O)c5N)n4)c32)ccc1C1CCN(C(=O)C2CC2)CC1 (single isomer, unassigned; (-)) [Example 18B, (−)-5-Amino-1-(6-(3-((4-(1-(cyclopropanecarbonyl)piperidin-4-yl)-3-ethylphenyl)amino)-2,3-dihydro-1H-inden-4-yl)pyridin-2-yl)-1H-pyrazole-4-carboxylic acid]
10 | 53 nM | CCc1cc(NC2CCc3cccc(-c4cccc(-n5ncc(C(=O)O)c5NC)c4)c32)ccc1C1CCN(C(=O)C2CC2)CC1 (single isomer, unassigned; enantiomer-1) [Example 12A, (enantiomer-1)-1-(3-(3-((4-(1-(Cyclopropanecarbonyl)piperidin-4-yl)-3-ethylphenyl)amino)-2,3-dihydro-1H-inden-4-yl)phenyl)-5-(methylamino)-1H-pyrazole-4-carboxylic acid]
11 | 58 nM | CCc1cc(NC2CCc3cccc(-c4cccc(-n5ncc(C(=O)O)c5N)c4)c32)ccc1C1CCN(C(=O)C2CC2)CC1 (single isomer, unassigned; (-)) [Example 9B, (−)-5-Amino-1-(3-(3-((4-(1-(cyclopropanecarbonyl)piperidin-4-yl)-3-ethylphenyl)amino)-2,3-dihydro-1H-inden-4-yl)phenyl)-1H-pyrazole-4-carboxylic acid]
12 | 40.4 nM | CCc1nc(NC2CCc3cccc(-c4cccc(-n5ncc(C(=O)O)c5NC)c4)c32)ccc1C1=CCN(C(=O)C2CC2)CC1 (single isomer, unassigned; (-)) [Example 22B, (−)-1-(3-(3-((1′-(Cyclopropanecarbonyl)-2-ethyl-1′,2′,3′,6′-tetrahydro-[3,4′-bipyridin]-6-yl)amino)-2,3-dihydro-1H-inden-4-yl)phenyl)-5-(methylamino)-1H-pyrazole-4-carboxylic acid]
13 | 86 nM | CCc1cc(NC2CCc3cccc(-c4ccc(OC)c(-n5ncc(C(=O)O)c5OC)c4)c32)ccc1C1CCN(C(=O)C2CC2)CC1 (single isomer, unassigned; (-)) [Example 8B, (−)-1-(5-(3-((4-(1-(Cyclopropanecarbonyl)piperidin-4-yl)-3-ethylphenyl)amino)-2,3-dihydro-1H-inden-4-yl)-2-methoxyphenyl)-5-methoxy-1H-pyrazole-4-carboxylic acid]
14 | < 0.5 nM | CCc1nc(NC2CCc3cccc(-c4cccc(-n5ncc(C(=O)O)c5NC)c4)c32)ccc1C1=CCN(C(=O)C2CC2)CC1 (single isomer, unassigned; (+)) [Example 22A, (+)-1-(3-(3-((1′-(Cyclopropanecarbonyl)-2-ethyl-1′,2′,3′,6′-tetrahydro-[3,4′-bipyridin]-6-yl)amino)-2,3-dihydro-1H-inden-4-yl)phenyl)-5-(methylamino)-1H-pyrazole-4-carboxylic acid]
15 | 2 nM | CCc1cc(NC2CCc3cccc(-c4ccc(C)c(-n5ncc(C(=O)O)c5OC)c4)c32)ccc1C1CCN(C(=O)C2CC2)CC1 (single isomer, unassigned; (-)) [Example 7B, (−)-1-(5-(3-((4-(1-(Cyclopropanecarbonyl)piperidin-4-yl)-3-ethylphenyl)amino)-2,3-dihydro-1H-inden-4-yl)-2-methylphenyl)-5-methoxy-1H-pyrazole-4-carboxylic acid]
16 | < 0.5 nM | CCc1cc(C[C@H]2CCc3cccc(-c4cccc(-n5ncc(C(=O)O)c5OC)c4)c32)ccc1C1CCN(C(=O)[C@H](C)O)CC1 [Example 2A, (+)-1-(3-((R)-3-(3-Ethyl-4-(1-((S)-2-hydroxypropanoyl)piperidin-4-yl)benzyl)-2,3-dihydro-1H-inden-4-yl)phenyl)-5-methoxy-1H-pyrazole-4-carboxylic acid]
